Measured values taken from patent US20240366729A1, “COMBINATION OF A NURR1 AGONIST WITH AT LEAST ONE OF AN ALDOSTERONE ANTAGONIST, AN INSULIN MODULATOR AND A SULFONYLUREA” (GENESIS PHARMA SA, priority 2021, published 2024).
Entries after “also recorded” stand apart in the source; their conditions may differ.

What was measured:
[1] = tested on: rat superior mesenteric arteries; details: cited from earlier work
[2] = tested on: rat model of transient middle cerebral artery occlusion (t-MCAO); assay: Neurological score (NSS), rat t-MCAO model, 7-day treatment (Example 2); assay type: in vivo; details: for Neurological score (NSS) vs vehicle: Day 1 and Day 8
Procedure: The study was performed in cycles, each one containing at least nine rats. Test compounds were administrated 20 minutes before reperfusion and twice a day thereafter. On Day 1, stroke was induced by the t-MCAO procedure. Neurological score (NSS), was performed before surgery, 24 hours and 7 days after t-MCAO. At study termination brains were harvested, sliced into five 2 mm thick coronal sections and stained with TTC for infarct size measurement. The experimental design and timeline for the two parts of the study are presented below.
The right Common Carotid artery (CCA) was exposed through a midline neck incision and carefully dissected free from surrounding nerves and fascia—from its bifurcation to the base of the skull. The Occipital artery branches of the External Carotid artery (ECA) were isolated, and these branches were dissected and coagulated. The ECA was dissected further distally and coagulated along with the terminal lingual and maxillary artery branches, just before their bifurcation. The Internal Carotid artery (ICA) was isolated and carefully separated from the adjacent Vagus nerve, and the Pterygopalatine artery was ligated close to its origin with a 5-0 nylon suture. […] The surgical wound was closed and the animals were returned to their cages to recover from anesthesia. One hour and half after occlusion rats were re-anesthetized and monofilament was withdrawn to allow reperfusion. The surgical wound was closed and rats were returned to their cages. Following surgery, animals were placed on a heating pad until their recovery from the anesthesia. All animals received subcutaneous Meloxicam at 2 mg/kg before and after surgery, daily during the next two days. They were observed frequently on the day of t-MCAO surgery and at least once daily thereafter.
Treatment was start 20 minutes before reperfusion and then at the end of the same day, via IP administration of the test compounds. Treatment continued twice a day for six consecutive days thereafter.
Neuroscore was graded on a scale of 0 to 18 (in which normal score is 0 and maximal deficit score is represented by 18).

[3] = tested on: mouse model of intracerebral haemorrhage (ICH); details: 40 mg/kg, cited from earlier work
Nurr1 = Nurr1 (Homo sapiens, UniProt P43354); details: through physical interaction with its ligand binding domain (LBD); cited from earlier work
Sequence of Nurr1 (P43354 whole entry, species assumed, the tested form may be a part): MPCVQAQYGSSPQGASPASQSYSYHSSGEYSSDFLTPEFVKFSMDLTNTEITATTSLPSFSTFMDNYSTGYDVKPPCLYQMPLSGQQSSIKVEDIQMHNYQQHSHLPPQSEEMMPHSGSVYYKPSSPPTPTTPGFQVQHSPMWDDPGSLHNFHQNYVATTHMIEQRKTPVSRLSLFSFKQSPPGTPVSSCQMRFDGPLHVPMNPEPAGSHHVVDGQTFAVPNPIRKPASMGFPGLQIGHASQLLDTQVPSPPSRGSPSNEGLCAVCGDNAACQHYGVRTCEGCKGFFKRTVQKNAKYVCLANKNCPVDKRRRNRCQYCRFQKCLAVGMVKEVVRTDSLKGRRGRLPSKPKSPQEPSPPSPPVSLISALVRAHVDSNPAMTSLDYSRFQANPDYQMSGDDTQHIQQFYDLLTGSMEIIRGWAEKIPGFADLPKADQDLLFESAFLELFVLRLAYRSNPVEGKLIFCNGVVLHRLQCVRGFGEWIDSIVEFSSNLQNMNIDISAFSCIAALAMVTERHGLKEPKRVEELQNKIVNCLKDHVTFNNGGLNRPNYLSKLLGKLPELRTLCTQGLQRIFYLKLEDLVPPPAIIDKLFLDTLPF

[4] = tested on: rat model of stroke (middle cerebral artery occlusion); details: 10 μg/kg IP loading dose plus 200 ng/h subcutaneous infusion beginning 4.5 h or 10 h after onset of ischemia; cited from earlier work
[5] = tested on: collagenase-induced intracerebral hemorrhage; details: 10 μg/kg loading dose followed by 200 ng/h for up to 7 days; cited from earlier work
[6] = tested on: patients with acute hemispheric infarction; details: oral administration; cited from earlier work
[7] = tested on: rodent models of subarachnoid hemorrhage; details: loading dose 10 μg/kg intraperitoneally, then infusion 200 ng/hr for 24 hours or one week; cited from earlier work
[8] = tested on: rat thromboembolic model of stroke; details: continuous infusion 75 ng/h; 7 days post middle cerebral artery occlusion; cited from earlier work
[9] = tested on: rodent models of brain ischemia and reperfusion injury; details: 1 mg/kg administered 10 min before reperfusion; cited from earlier work
[10] = tested on: patients with large hemispheric infarctions; details: intravenous 0.13 mg bolus, 0.16 mg/h for 6 h, then 0.11 mg/h for 66 h; cited from earlier work
[11] = tested on: experimental intracerebral hemorrhage in mice; details: 10 μg either before or at 2 h after hemorrhage; cited from earlier work
[12] = tested on: rat model of transient middle cerebral artery occlusion (t-MCAO); assay: Brain infarct size (TTC staining, ImageJ), rat t-MCAO model, Example 2; assay type: in vivo; details: at termination; amodiaquine 0.5 mg/kg, potassium canrenoate 0.33 mg/kg, glibenclamide 1 μg/kg, exenatide 0.05 μg/kg; vehicle 38%

Structure (SMILES): CCN(CC)Cc1cc(Nc2ccnc3cc(Cl)ccc23)ccc1O [Amodiaquine, 4-[(7-chloroquinolin-4-yl)amino]-2[(diethylamino)methyl]-phenol]
- Vasorelaxation [1]: induce vasorelaxation
- Neurological score (NSS) vs vehicle ([2]; amodiaquine 0.5 mg/kg (Group 5M), 20 min before reperfusion and twice a day): Statistically significant differences; also recorded: statistically significant NSS improvement
- Neurological score (NSS) vs vehicle ([2]; amodiaquine 7 mg/kg (Group 3M), 20 min before reperfusion and twice a day): Statistically significant differences; also recorded: statistically significant NSS improvement
- Neurological score (NSS) vs vehicle ([2]; amodiaquine 20 mg/kg (Group 2M), 20 min before reperfusion and twice a day): Statistically significant differences; also recorded: statistically significant NSS improvement
- Neurological score (NSS) vs vehicle, monotherapy at different doses ([2]; amodiaquine 0.5-20 mg/kg): improved significantly and dose dependently the neurological score
- Perihematomal activation of microglia/macrophages and astrocytes ([3]; i.p. daily from 3 h after ICH induction): diminished perihematomal activation of microglia/macrophages and astrocytes
- ICH-induced mRNA expression of IL-1β, CCL2 and CXCL2 ([3]; i.p. daily): suppressed ICH-induced mRNA expression of IL-1β, CCL2 and CXCL2
- Motor dysfunction ([3]; i.p. daily): ameliorated motor dysfunction
- Transcriptional function of Nurr1 (Nurr1): stimulate the transcriptional function of Nurr1

Structure (SMILES): COc1ccc(Cl)cc1C(=O)NCCc1ccc(S(=O)(=O)NC(=O)NC2CCCCC2)cc1 [Glibenclamide, 5-chloro-N-[2-[4-(cyclohexylcarbamoyl-sulfamoyl)phenyl]ethyl]-2-methoxybenzamide]
- Hemispheric swelling, mortality and Garcia scores [4]: significantly reduced hemispheric swelling at 24 h and 48-h mortality and improved Garcia scores at 48 h
- Efficacy in collagenase intracerebral hemorrhage [5]: not effective
- 6-month functional outcome [6]: did not substantially improve 6-month functional outcome
- Safety of treatment [6]: safe
- Efficacy in subarachnoid hemorrhage [7]: effective
- Reduction of cerebral edema, infarct volume and mortality [8]: 50%
- Efficacy in brain ischemia and reperfusion injury [9]: effective
- Brain swelling (midline shift), MMP-9, functional outcomes and mortality [10]: promising findings
- Cerebral edema, BBB disruption and neurological deficit [11]: alleviate cerebral edema, disrupted BBB, and neurological deficit

Structure (SMILES): C[C@]12CCC(=O)C=C1C=C[C@@H]1[C@@H]2CC[C@@]2(C)[C@H]1CC[C@@]2(O)CCC(=O)[O-].[K+] [Potassium canrenoate, potassium 3-[(8R,9S,10R,13S,14S,17R)-17-hydroxy-10,13-dimethyl-3-oxo-2,8,9,11,12,14,15,16-octahydro-1H-cyclopenta[a]phenanthren-17-yl]propanoate]
- Brain infarct size vs vehicle, Part II [12]: Statistically significant differences in infarct size; also recorded: Less prominent decrease in infarct volume
- Neurological score (NSS) vs vehicle, Part II ([2]; Day 1, amodiaquine 0.5 mg/kg, potassium canrenoate 0.33 mg/kg, glibenclamide 1 μg/kg, exenatide 0.05 μg/kg, 20 min before reperfusion and twice a day): Statistically significant differences

Structure (SMILES): CCN(CC)CCCC(C)Nc1ccnc2cc(Cl)ccc12 (stereo not drawn) [chloroquine]
- Transcriptional function of Nurr1 (Nurr1): stimulate the transcriptional function of Nurr1
